Data: PubChem BioAssay AID1259407 (Chemical Carcinogenesis Research Information System (CCRIS), 2018)
Activity calls are given as the source filed them. How the calls were made is not given here.

Test system: CCRIS mutagenicity, Ames/micronucleus/aberration tests
Assay: CCRIS mutagenicity studies
[1] = Test System: AMES SALMONELLA TYPHIMURIUM, Strain/Indicator: TA98, Metabolic Activation: NONE, Method: STANDARD PLATE
[2] = Test System: AMES SALMONELLA TYPHIMURIUM, Strain/Indicator: TA98, Metabolic Activation: RAT, LIVER, S-9, AROCLOR 1254, Method: STANDARD PLATE
[3] = Test System: AMES SALMONELLA TYPHIMURIUM, Strain/Indicator: TA100, Metabolic Activation: NONE, Method: STANDARD PLATE
[4] = Test System: AMES SALMONELLA TYPHIMURIUM, Strain/Indicator: TA100, Metabolic Activation: RAT, LIVER, S-9, AROCLOR 1254, Method: STANDARD PLATE

CC(=O)Nc1ccc(OCC(O)CNC(C)C)cc1 (stereo not drawn)
mutagenic call (Test System: AMES SALMONELLA TYPHIMURIUM, Strain/Indicator: TA98, Metabolic Activation: NONE): inactive; negative
mutagenic call [1]: inactive; negative
mutagenic call (Test System: AMES SALMONELLA TYPHIMURIUM, Strain/Indicator: TA98, Metabolic Activation: RAT, LIVER, S-9, AROCLOR 1254): inactive; negative
mutagenic call [2]: inactive; negative
mutagenic call (Test System: AMES SALMONELLA TYPHIMURIUM, Strain/Indicator: TA100, Metabolic Activation: NONE): inactive; negative
mutagenic call [3]: inactive; negative
mutagenic call (Test System: AMES SALMONELLA TYPHIMURIUM, Strain/Indicator: TA100, Metabolic Activation: RAT, LIVER, S-9, AROCLOR 1254): inactive; negative
mutagenic call [4]: inactive; negative
mutagenic call (Test System: AMES SALMONELLA TYPHIMURIUM, Strain/Indicator: TA1535, Metabolic Activation: NONE): inactive; negative
mutagenic call (Test System: AMES SALMONELLA TYPHIMURIUM, Strain/Indicator: TA1535, Metabolic Activation: RAT, LIVER, S-9, AROCLOR 1254): inactive; negative
mutagenic call (Test System: AMES SALMONELLA TYPHIMURIUM, Strain/Indicator: TA1537, Metabolic Activation: NONE): inactive; negative
mutagenic call (Test System: AMES SALMONELLA TYPHIMURIUM, Strain/Indicator: TA1537, Metabolic Activation: RAT, LIVER, S-9, AROCLOR 1254): inactive; negative

CC(C)CC=O
mutagenic call (Test System: AMES SALMONELLA TYPHIMURIUM, Strain/Indicator: TA98, Metabolic Activation: NONE, Method: PREINCUBATION): inactive; negative
mutagenic call (Test System: AMES SALMONELLA TYPHIMURIUM, Strain/Indicator: TA98, Metabolic Activation: RAT, LIVER, S-9, AROCLOR 1254, Method: PREINCUBATION): inactive; negative
mutagenic call (Test System: AMES SALMONELLA TYPHIMURIUM, Strain/Indicator: TA100, Metabolic Activation: NONE, Method: PREINCUBATION): inactive; negative
mutagenic call (Test System: AMES SALMONELLA TYPHIMURIUM, Strain/Indicator: TA100, Metabolic Activation: RAT, LIVER, S-9, AROCLOR 1254, Method: PREINCUBATION): inactive; negative
mutagenic call (Test System: AMES SALMONELLA TYPHIMURIUM, Strain/Indicator: TA102, Metabolic Activation: NONE, Method: PREINCUBATION): inactive; negative
mutagenic call (Test System: AMES SALMONELLA TYPHIMURIUM, Strain/Indicator: TA102, Metabolic Activation: RAT, LIVER, S-9, AROCLOR 1254, Method: PREINCUBATION): inactive; negative

CS(=O)(=O)Nc1ccc(Nc2c3ccc(N=[N+]=[N-])cc3nc3ccc(N=[N+]=[N-])cc23)cc1
mutagenic call (Test System: AMES SALMONELLA TYPHIMURIUM, Strain/Indicator: TA1537, Metabolic Activation: NONE, Method: STANDARD PLATE): inactive; negative

C=C(Cl)Cl
mutagenic call (End Point: IN VITRO CHROMOSOMAL ABERRATIONS, Test System: CHINESE HAMSTER LUNG (CHL), Metabolic Activation: NONE): inactive; negative
mutagenic call (End Point: IN VITRO CHROMOSOMAL ABERRATIONS, Test System: CHINESE HAMSTER LUNG (CHL), Metabolic Activation: RAT. LIVER, S-9, KC-400): active; positive
mutagenic call (End Point: IN VIVO MICRONUCLEUS, Test System: BONE MARROW POLYCHROMATIC ERYTHROCYTES, Species: MOUSE, Strain/Sex: DDY/MALE, Route: GAVAGE (ORAL) ONCE): inactive; negative
mutagenic call (End Point: IN VIVO MICRONUCLEUS, Test System: BONE MARROW POLYCHROMATIC ERYTHROCYTES, Species: MOUSE, Strain/Sex: DDY/MALE, Route: GAVAGE (ORAL), 4 DOSES AT 24 HR INTERVALS): inactive; negative
mutagenic call (End Point: IN VIVO MICRONUCLEUS, Test System: MICRONUCLEATED POLYCHROMATIC ERYTHROCYTES, Species: MOUSE, Strain/Sex: ICR/FEMALE (PREGNANT), Route: IP INJECTION ON 18 D OF GESTATION): inactive; negative
mutagenic call (Test System: AMES SALMONELLA TYPHIMURIUM, Strain/Indicator: RSJ100, Metabolic Activation: NONE, Method: VAPOR PHASE): inactive; negative
mutagenic call (Test System: AMES SALMONELLA TYPHIMURIUM, Strain/Indicator: TA97, Metabolic Activation: NONE, Method: STANDARD PLATE): inactive; negative
mutagenic call (Test System: AMES SALMONELLA TYPHIMURIUM, Strain/Indicator: TA97, Metabolic Activation: RAT, LIVER, S-9, AROCLOR 1254, Method: STANDARD PLATE): active; positive
mutagenic call [1]: inactive; negative
mutagenic call [2]: active; positive
mutagenic call (Test System: AMES SALMONELLA TYPHIMURIUM, Strain/Indicator: TA98, Metabolic Activation: RAT, LIVER, S-9, PCB, Method: GAS EXPOSURE): inactive; negative
mutagenic call (Test System: AMES SALMONELLA TYPHIMURIUM, Strain/Indicator: TA100, Metabolic Activation: MOUSE, LIVER, S-9, PHENOBARBITAL, Method: DESICCATOR): active; positive
mutagenic call [3]: active; positive
mutagenic call (Test System: AMES SALMONELLA TYPHIMURIUM, Strain/Indicator: TA100, Metabolic Activation: RAT, LIVER, S-9, AROCLOR 1254, Method: DESICCATOR): active; positive
mutagenic call [4]: active; positive
mutagenic call (Test System: AMES SALMONELLA TYPHIMURIUM, Strain/Indicator: TA100, Metabolic Activation: RAT, LIVER, S-9, PCB, Method: GAS EXPOSURE): active; positive
mutagenic call (Test System: AMES SALMONELLA TYPHIMURIUM, Strain/Indicator: TA100, Metabolic Activation: RAT, LIVER, S-9, PHENOBARBITAL, Method: DESICCATOR): active; positive
mutagenic call (Test System: AMES SALMONELLA TYPHIMURIUM, Strain/Indicator: TA104, Metabolic Activation: NONE, Method: STANDARD PLATE): inactive; negative
mutagenic call (Test System: AMES SALMONELLA TYPHIMURIUM, Strain/Indicator: TA104, Metabolic Activation: RAT, LIVER, S-9, AROCLOR 1254, Method: STANDARD PLATE): inactive; negative
mutagenic call (Test System: AMES SALMONELLA TYPHIMURIUM, Strain/Indicator: TA1530, Metabolic Activation: MOUSE, LIVER, S-9, PHENOBARBITAL, Method: DESICCATOR): active; positive
mutagenic call (Test System: AMES SALMONELLA TYPHIMURIUM, Strain/Indicator: TA1535, Metabolic Activation: HAMSTER, LIVER, S-9, AROCLOR 1254, Method: DESICCATOR): active; positive
mutagenic call (Test System: AMES SALMONELLA TYPHIMURIUM, Strain/Indicator: TA1535, Metabolic Activation: MOUSE, KIDNEY, S-9, Method: DESICCATOR): active; positive
mutagenic call (Test System: AMES SALMONELLA TYPHIMURIUM, Strain/Indicator: TA1535, Metabolic Activation: MOUSE, LIVER, S-9, AROCLOR 1254, Method: DESICCATOR): active; positive
mutagenic call (Test System: AMES SALMONELLA TYPHIMURIUM, Strain/Indicator: TA1535, Metabolic Activation: RAT, LIVER, S-9, AROCLOR 1254, Method: DESICCATOR): active; positive
mutagenic call (Test System: AMES SALMONELLA TYPHIMURIUM, Strain/Indicator: TA1535, Metabolic Activation: RAT, LIVER, S-9, PCB, Method: GAS EXPOSURE): active; positive
mutagenic call (Test System: AMES SALMONELLA TYPHIMURIUM, Strain/Indicator: TA1535, Metabolic Activation: RAT, LIVER, S-9, PHENOBARBITAL, Method: DESICCATOR): active; positive
mutagenic call (Test System: AMES SALMONELLA TYPHIMURIUM, Strain/Indicator: TA1537, Metabolic Activation: RAT, LIVER, S-9, PCB, Method: GAS EXPOSURE): inactive; negative
mutagenic call (Test System: AMES SALMONELLA TYPHIMURIUM, Strain/Indicator: TA1538, Metabolic Activation: RAT, LIVER, S-9, PCB, Method: GAS EXPOSURE): inactive; negative
mutagenic call (Test System: AMES SALMONELLA TYPHIMURIUM, Strain/Indicator: TA2637, Metabolic Activation: RAT, LIVER, S-9, PCB, Method: GAS EXPOSURE): inactive; negative
mutagenic call (Test System: AMES SALMONELLA TYPHIMURIUM, Strain/Indicator: TPT100, Metabolic Activation: NONE, Method: VAPOR PHASE): active; positive
mutagenic call (Test System: E. COLI, Strain/Indicator: WP2 UVRA (PKM101), Metabolic Activation: RAT, LIVER, S-9, PCB, Method: GAS EXPOSURE): active; positive
mutagenic call (Test System: E. COLI, Strain/Indicator: WP2 UVRA, Metabolic Activation: RAT, LIVER, S-9, PCB, Method: GAS EXPOSURE): active; positive
mutagenic call (Test System: MOUSE LYMPHOMA, Strain/Indicator: L5178Y (TK+/TK-), Metabolic Activation: NONE, Method: SUSPENSION/PLATE): inactive; negative
mutagenic call (Test System: MOUSE LYMPHOMA, Strain/Indicator: L5178Y (TK+/TK-), Metabolic Activation: RAT, LIVER, S-9, Method: SUSPENSION/PLATE): active; positive
